Results: US7960131B2, “Functional genomic pore assay for mixed cell populations” (Wisconsin Alumni Research Foundation, priority 2003, dated 2011)
Where “and” joins values, the source holds several entries; their conditions need not be identical. Equal entries are not always repeated.

Key:
[1] = tested on: animal model of severe sepsis; conditions: co-administration, mice; cited from earlier work
P2X7 = molecular target: T1, P2X7 (Homo sapiens, UniProt Q99572); test: YO-PRO-1 plate assay of P2X7 agonists with astrocytoma cell line 1321N1; assay type: cell-based; conditions: for YO-PRO-1 fluorescence (485/20, 528/20), single well: 5 × 10^4 1321N1 cells; for YO-PRO-1 fluorescence, average of duplicate wells: 1321N1 cells;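 for all read-outs here: dye uptake read after 20 min agonist exposure with YO-PRO-1 present, unbound dye removed by washing before reading in a fluorescence plate reader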
T1 construct: host or cells: astrocytoma cell line (the earlier reading names it 1321N1)
T1 sequence (Q99572 1-595): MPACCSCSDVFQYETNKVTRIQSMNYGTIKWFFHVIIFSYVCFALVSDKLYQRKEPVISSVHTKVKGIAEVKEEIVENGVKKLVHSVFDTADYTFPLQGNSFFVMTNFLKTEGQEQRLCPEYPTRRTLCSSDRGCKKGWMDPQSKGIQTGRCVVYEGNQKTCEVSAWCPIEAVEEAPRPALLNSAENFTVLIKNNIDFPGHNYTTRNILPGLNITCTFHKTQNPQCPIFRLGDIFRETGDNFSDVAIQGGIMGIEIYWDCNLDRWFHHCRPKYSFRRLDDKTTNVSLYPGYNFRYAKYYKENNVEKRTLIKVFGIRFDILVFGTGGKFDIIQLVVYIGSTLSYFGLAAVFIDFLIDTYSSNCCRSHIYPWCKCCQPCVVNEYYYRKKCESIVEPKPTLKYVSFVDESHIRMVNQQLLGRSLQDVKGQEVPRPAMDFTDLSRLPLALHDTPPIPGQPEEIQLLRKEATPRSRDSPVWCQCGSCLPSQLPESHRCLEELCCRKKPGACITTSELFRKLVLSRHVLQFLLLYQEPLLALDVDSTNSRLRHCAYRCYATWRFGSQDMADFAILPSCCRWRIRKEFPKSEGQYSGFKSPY

SMILES	YO-PRO-1 fluorescence (485/20, 528/20), single well (P2X7; agent 3 μM + YOPRO)	YO-PRO-1 fluorescence (485/20, 528/20), single well (P2X7; agent 10 μM + YOPRO)	YO-PRO-1 fluorescence (485/20, 528/20), single well (P2X7; agent 30 μM + YOPRO)	YO-PRO-1 fluorescence (485/20, 528/20), single well (P2X7; agent 100 μM + YOPRO)	YO-PRO-1 fluorescence (485/20, 528/20), single well (P2X7; agent 300 μM + YOPRO)	YO-PRO-1 fluorescence, average of duplicate wells (P2X7; 1 uM, agent + YOPRO)	YO-PRO-1 fluorescence, average of duplicate wells (P2X7; 3 uM, agent + YOPRO)	further results
CSc1nc(N)c2ncn([C@@H]3O[C@H](COP(=O)(O)OP(=O)(O)OP(=O)(O)O)[C@@H](O)[C@H]3O)c2n1 [2MeSATP, 2-methylthio-adenosine 5′-triphosphate]	109 and 102	144	157 and 154	155 and 170	168 and 162	105.5	144	LPS-induced serum levels of TNF-alpha and IL-1 [1]: reductions in LPS-induced serum levels of TNF-alpha and IL-1; protection from endotoxic death [1]: protects mice from endotoxic death; YO-PRO-1 fluorescence (485/20, 528/20), single well (P2X7; agent 1 mM + YOPRO): 161 and 164
Nc1ncnc2c1ncn2[C@@H]1O[C@H](COP(=O)(O)OP(=O)(O)NP(=O)(O)O)[C@@H](O)[C@H]1O [AMPPNP, adenosine 5′(beta,gamma-imido)triphosphate]	–	–	–	–	75 and 86	–	–	–
CN([C@@H](Cc1ccc(OS(=O)(=O)c2cccc3cnccc23)cc1)C(=O)N1CCN(c2ccccc2)CC1)S(=O)(=O)c1cccc2cnccc12 [KN62]	–	–	–	–	–	–	–	YO-PRO-1 fluorescence (485/20, 528/20), single well (P2X7; 1 mM ATP + KN62 1 μM + YOPRO): 185 and 177; YO-PRO-1 fluorescence (485/20, 528/20), single well (P2X7; 1 mM ATP + KN62 3 μM + YOPRO): 181 and 176; YO-PRO-1 fluorescence (485/20, 528/20), single well (P2X7; 1 mM ATP + KN62 10 μM + YOPRO): 159; YO-PRO-1 fluorescence (485/20, 528/20), single well (P2X7; 1 mM ATP + KN62 30 μM + YOPRO): 155 and 153; YO-PRO-1 fluorescence (485/20, 528/20), single well (P2X7; 1 mM ATP + KN62 100 μM + YOPRO): 148; YO-PRO-1 fluorescence (485/20, 528/20), single well (P2X7; 1 mM ATP + KN62 300 μM + YOPRO): 152 and 165; YO-PRO-1 fluorescence, average of duplicate wells (P2X7; 1 mM ATP + KN62 1 uM + YOPRO): 181; YO-PRO-1 fluorescence, average of duplicate wells (P2X7; 1 mM ATP + KN62 3 uM + YOPRO): 178.5
O=c1ccn([C@@H]2O[C@H](COP(=O)(O)OP(=O)(O)OP(=O)(O)O)[C@@H](O)[C@H]2O)c(=O)[nH]1 [UTP]	–	–	–	–	72 and 73	–	–	–
Nc1ncnc2c1ncn2[C@@H]1O[C@H](COP(=O)(O)CP(=O)(O)OP(=O)(O)O)[C@@H](O)[C@H]1O [ab-CH2-ATP]	68 and 69	74	74 and 78	89 and 83	101 and 116	67.5	68.5	YO-PRO-1 fluorescence (485/20, 528/20), single well (P2X7; agent 1 μM + YOPRO): 68 and 67
